# Test system: MCF-7 cells
# Assay: MCF-7 cell proliferation yield assay (nuclei counted after 4 days) with or without hormone
# Assay type: cell-based, human
# Details: hormone added with the inhibitor (CDHuS, CDHA, rHA); estradiol at 100 pM; the other hormones tested against rHA, data not shown
# Procedure: A clonal population of the human breast cancer MCF-7 cell line was used in some of the experiments described below. These cells were routinely grown in 5% fetal bovine serum (FBS) supplemented-Dulbecco's Modified Eagle's Medium (DME). […] Estrogen non-target, serum-insensitive human breast cancer MDA-MB231 cells (ATCC, Rockville, Md.) were used as controls; they were grown under the same conditions as MCF-7 cells.
# To assess the inhibitory effect of serum or purified protein preparations, 4×10^4 cells/well were seeded in 12-well Falcon Multiplates in 5% FBS; they were allowed to attach for 24 h before exposing them to test medium. Cell proliferation yields were measured after 4 days in DME plus 25 ug transferrin (T)/ml and 100 ng insulin (I)/ml ([…]) alone, or ITDME plus CD human serum (CDHuS), or purified protein preparations. Each sample was tested in duplicate in the presence or absence of 100 pM estradiol (E2) and each experiment was repeated at least three times. Phenol red-free media were used in all experiments involving cell proliferation rates or yields. Cells were lysed and nuclei counted on a Coulter Counter Model ZM.
row,SMILES,reversal by hormone of the inhibitory effect on MCF-7 proliferation
1,CC(=O)[C@H]1CC[C@H]2[C@@H]3CCC4=CC(=O)CC[C@]4(C)[C@H]3CC[C@]12C [Progesterone],failed to reverse the effect of rHA
2,C[C@]12CCC(=O)C[C@@H]1CC[C@@H]1[C@@H]2CC[C@]2(C)[C@@H](O)CC[C@@H]12 [5α-dihydrotestosterone],failed to reverse the effect of rHA
3,C[C@]1(O)CC[C@H]2[C@@H]3CCC4=CC(=O)CCC4=C3C=C[C@@]21C [R1881],failed to reverse the effect of rHA
4,C[C@]12CCC(=O)C=C1CC[C@@H]1[C@@H]2[C@@H](O)C[C@@]2(C)[C@H]1CC[C@]2(O)C(=O)CO [hydrocortisone],failed to reverse the effect of rHA
5,N[C@@H](Cc1cc(I)c(Oc2cc(I)c(O)c(I)c2)c(I)c1)C(=O)O [thyroxine],failed to reverse the effect of rHA

# — US20020123080A1, “Inhibiting proliferation of cancer cells” (Tufts University, priority 1996, published 2002)
